# Data: patent EP0532446A1, “Use of xanthines in the treatment or prevention of hypeoglycemia” (NOVO NORDISK A/S, priority 1991, dated 1993)
# “And” between values parts separate entries of the source, which are not always exact repeats. Equal entries are not always repeated.
# How the values were obtained:
# Format in all cases: in vivo
# [1] = Influence of theophyllamine on the blood glucose level after insulin-induced hypoglycaemia in healthy subjects
# Method: (§1) Under carefully controlled conditions hypoglycaemia was induced in each of eleven healty subjects by injection of Actrapid® Human insulin, 0.15 IU/kg (available from Novo Nordisk A/S, Bagsvaerd, Denmark). The blood glucose level was monitored from just before the injection of the insulin took place until 2 hours after. The basal level, the nadir level and the level after 1 hour and 2 hours for each subject are given in Table 1 under the entry "placebo".
# (§2) On a different day a study similar to the one described above was performed on the same subjects, the only difference being that in this second study theophyllamine was administered concomitantly with the insulin. The theophyllamine was administered in the form of a bolus injection of 220 mg per person given at the same time as the insulin followed by a constant rate infusion of theophyllamine of 2,5 mg/kg body weight/hour. The corresponding glucose levels are given in Table 1 under the entry "theophyllamine".
# [2] = Influence of theophyllamine on the blood glucose level after insulin-induced hypoglycaemia in diabetic patients
# Method: as §1, with “of nine diabetic patients” for “of eleven healty subjects”, “Table 2” for “Table 1”
# as §2, with “patients,” for “subjects,”, “person” for “person given at the same time as the insulin”, “2” for “1”
# [3] = Awareness of early hypoglycaemia warning symptoms in diabetic patients taking theophyllamine regularly; conditions: some diabetic patients who have taken theophyllamine regularly as a preventive measure
# Description: Usually hypoglycaemia can be relieved by administration of glucose or glucagon. Normally, but not always, a hypoglycaemic episode is preceded by some early warning symptoms which makes it possible for the patient to take measures against it. Throughout this specification the diabetic patients' attention to these early warning symptoms is in accordance with the common usage referred to as the "awareness".
# [4] = healthy subjects, given concomitantly with the insulin
# [5] = individual healthy subjects No. 1-11, insulin 0.15 IU/kg, theophyllamine bolus 220 mg per person + infusion 2,5 mg/kg body weight/hour
# [6] = mean of eleven healthy subjects, insulin 0.15 IU/kg, theophyllamine bolus 220 mg per person + infusion 2,5 mg/kg body weight/hour
# [7] = diabetic patients, given concomitantly with the insulin
# [8] = individual diabetic patients No. 1-9, insulin 0.15 IU/kg, theophyllamine bolus 220 mg per person + infusion 2,5 mg/kg body weight/hour
# [9] = mean of nine diabetic patients, insulin 0.15 IU/kg, theophyllamine bolus 220 mg per person + infusion 2,5 mg/kg body weight/hour
smiles,measurement,setting,value
"Cn1c(=O)c2[nH]cnc2n(C)c1=O [Theophyllamine, theophyllamine]",glucose level 1 hour after the administration of insulin compared with insulin alone (placebo),[1]; [4],higher
same,glucose level 2 hours after the administration of insulin compared with insulin alone (placebo),[1]; [4],higher
same,nadir level compared with insulin alone (placebo),[1]; [4],higher
same,Nadir Level (blood glucose),[1]; [5],1.5 mmol/l (2×) and 1.3 mmol/l (2×) and 1.4 mmol/l and 2.0 mmol/l (2×) and 1.9 mmol/l and 1.6 mmol/l and 1.7 mmol/l and 2.4 mmol/l
same,blood glucose level 1 hr after insulin,[1]; [5],2.7 mmol/L and 2.4 mmol/L and 2.3 mmol/L and 3.1 mmol/L and 2.8 mmol/L and 2.5 mmol/L and 3.0 mmol/L and 3.8 mmol/L and 2.6 mmol/L and 3.4 mmol/L and 2.0 mmol/L
same,blood glucose level 2 hr after insulin,[1]; [5],3.9 mmol/l and 2.6 mmol/l and 3.1 mmol/l and 4.3 mmol/l (2×) and 4.1 mmol/l and 3.5 mmol/l (2×) and 4.5 mmol/l and 5.4 mmol/l and 5.1 mmol/l
same,Basal Level (blood glucose),"[1]; individual healthy subjects No. 1-11, just before injection of insulin 0.15 IU/kg and theophyllamine",5.2 mmol/l (4×) and 5.0 mmol/l (2×) and 5.9 mmol/l and 5.8 mmol/l (2×) and 5.6 mmol/l and 5.7 mmol/l
same,"Nadir level (blood glucose), MEAN",[1]; [6],1.7 mmol/L
same,"blood glucose level 1 hr after insulin, MEAN",[1]; [6],2.8 mmol/L
same,"blood glucose level 2 hr after insulin, MEAN",[1]; [6],4.0 mmol/L
same,"Basal Level (blood glucose), MEAN","[1]; mean of eleven healthy subjects, just before injection of insulin 0.15 IU/kg and theophyllamine",5.4 mmol/L
same,glucose level 1 hour after the administration of insulin compared with insulin alone (placebo),[2]; [7],higher
same,glucose level 2 hours after the administration of insulin compared with insulin alone (placebo),[2]; [7],higher
same,nadir level compared with insulin alone (placebo),[2]; [7],higher
same,Nadir Level (blood glucose),[2]; [8],1.5 mmol/l (2×) and 4.1 mmol/l and 1.1 mmol/l (2×) and 1.7 mmol/l and 2.6 mmol/l and 1.4 mmol/l and 2.2 mmol/l
same,blood glucose level 1 hr after insulin,[2]; [8],2.9 mmol/l (2×) and 2.1 mmol/l (3×) and 4.4 mmol/l and 1.9 mmol/l and 2.5 mmol/l (2×)
same,blood glucose level 2 hr after insulin,[2]; [8],4.8 mmol/l and 3.7 mmol/l (2×) and 6.4 mmol/l and 3.1 mmol/l and 3.0 mmol/l (3×) and 3.8 mmol/l
same,Basal Level (blood glucose),"[2]; individual diabetic patients No. 1-9, just before injection of insulin 0.15 IU/kg and theophyllamine",4.8 mmol/l and 4.5 mmol/l (2×) and 5.5 mmol/l and 4.6 mmol/l and 5.6 mmol/l and 4.7 mmol/l and 6.0 mmol/l and 4.9 mmol/l
same,"Nadir level (blood glucose), MEAN",[2]; [9],2.2 mmol/L
same,"blood glucose level 1 hr after insulin, MEAN",[2]; [9],2.6 mmol/L
same,"blood glucose level 2 hr after insulin, MEAN",[2]; [9],3.8 mmol/L
same,"Basal Level (blood glucose), MEAN","[2]; mean of nine diabetic patients, just before injection of insulin 0.15 IU/kg and theophyllamine",5.0 mmol/L
same,awareness,[3],improved awareness
